The format of data set [1] is in vivo, human. The method, then:
Placement of physiologic monitoring sensors, intravenous fluids, supplemental oxygen (4 l/min) and optional oral diazepam sedation (5-10 mg) is initiated prior to treatment. Patients receive 0.85 to 1.0 liter of intravenous (IV) 5% dextrose in 0.25 normal saline per hour alternated with 5% dextrose in 0.5 normal saline plus 7.5 to 10 meq of KCl per liter to insure a urinary output of no less than 1 ml/kg/hr. […] Two hours after treatment and 48 hours post-treatment, serum chemistries and hematologic profiles are repeated. A typical patient flow chart is depicted in FIG. 14.
Pretreatment protocol: the patient was given 10 mg diazepam by mouth and dressed into a modified wet suit. The wet suit was cut lengthwise at the arms and legs. Velcro strappings were attached at the cuttings for closure, rapid removal or exposure of the limb(s). After placement of monitoring sensors, they were started on IV fluids of 5% dextrose, 0.5 normal saline with 7 meq K^+, infused at an initial rate of 12 cc/kg/hr. Evaporative heat loss from the head was minimized by a plastic shower cap and towels. A 401AC temperature probe (YSI Incorporated, Yellow Springs, Ohio) was inserted 11 cm. into the rectum. […] A TEEM 100 Metabolic Analysis System (AeroSport Inc., Ann Arbor, Mich.), with a modified face mask and oxygen delivery system (38-40% 02 saturation) for patient comfort and increased accuracy, was attached to the patient. Oxygen consumption (V02), carbon dioxide production (VC02), expired air volume (VE), heart rate (HR), and Kcal of heat produced were measured in 20 second intervals and extrapolated to minute or hourly rates.
Pretreatment protocol: all medications were stopped 2 weeks prior to treatment. The patient refused taking diazepam, placement of a Foley catheter and oxygen face mask. They dressed themself into a dry cold water immersion suit (Stearns, ISS-590I, Universal Adult) designed to prevent heat loss and modified for easy placement of physiologic monitors. Equipment for measurement of heart rate, temperature, carbon dioxide production and Kcal of heat produced were conducted as outlined in Example 1. An oral breathing tube was used to measure V02 from room air. Urine output was measured when the patient voluntarily urinated through a “Texas” catheter (superficial condom tightly fitted around the head of the penis with tubing connected to urine collection bag). The patient was informed that hyperthermia would be administered as tolerated by their stamina and monitored clinical parameters, not to exceed 5 hours, on a daily or every other day basis, for a total of 5 sessions.
Pretreatment protocol: the evening prior treatment the patient was instructed not to eat and dress in cotton undergarments. Approximately 4 hours prior to treatment 2 mg alprazolam was administered by mouth. The patient dressed themself into a dry cold water immersion suit (Stearns, previously described) with headgear. Monitoring sensors, including EKG display, IV fluids and Foley catheter were attached and the suit was zipped closed. The patient opted for oxygen supplementation. The modified face mask was connected to the TEEM 100 metabolic Analysis System for V02 measurements. Data was recorded as previously described.
Pretreatment protocol: the patient was transfused with three units of packed red blood cells. A Foley catheter was inserted on each day of treatment. They were covered in a water soaked blanket containing a polyethylene lining. A shower cap with towels was used to prevent heat loss from the head. Intravenous lines were placed into both arms with 19 gauge intracaths. EKG, heart rate, rectal thermistor, and V02 monitors were attached. Oxygen supplemented facemask and equipment was attached and data monitored as previously described under Example 1.
Pretreatment protocol: the patient was transfused with 2 units of packed red blood cells 48 hours prior to undergoing treatment. Intravenous fluids (Lactated Ringer's solution) were administered at a rate of 100 cc/hour. […]

The conditions of data set [2]: cited from earlier work.
A further data set deals with hepatocyte. Conditions: in less than 6 minutes after the hormonal action of glucagon; cited from earlier work.
In the next data set the test system is hepatitis C virus. Kind of data set: DNP with interferon-alpha, chronic hepatitis C (Example 10). It is filed as in vivo, human. Conditions: patient history.

These results are taken from patent US7635722B1, “Chemical induced intracellular hyperthermia” (priority 1998, dated 2009).

Read-outs that look alike come from different tables or passages of the source.

On to `CN(C)c1ccc2nc3ccc(=[N+](C)C)cc-3sc2c1` [methylene blue], for which the VO2 in data set [1] (Example 9, after methylene blue 2 mg/kg infusion, on DNP 3 mg/kg) was 450-500 cc/minute.

As for `NCCc1ccc(O)c(O)c1` [dopamine], the V02 in data set [1] (human, in vivo) is 680-710 cc/min.

`CNC(C)(C)Cc1ccccc1.CNC(C)(C)Cc1ccccc1.O=S(=O)(O)O` [Mephenteramine sulfate]: the heart rate in data set [1] (Example 4, ten minutes after 30 mg intramuscular, before DNP) amounted to 96. Moreover, in data set [1] (Example 4, ten minutes after 30 mg intramuscular, before DNP, from 250), the V02 amounted to 320 cc/min.

For orientation: half-life means the time in which the quantity being followed falls by half. Consider `NC(=O)CC[C@@H]1NC(=O)[C@H](Cc2ccccc2)NC(=O)[C@H](Cc2ccc(O)cc2)NC(=O)[C@@H](N)CSSC[C@@H](C(=O)N2CCC[C@H]2C(=O)N[C@@H](CCCN=C(N)N)C(=O)NCC(N)=O)NC(=O)[C@H](CC(N)=O)NC1=O` [vasopressin], for which, in data set [2] (in vivo), the half-life was 5 min.

Consider glucagon, for which the half-life in data set [2] (in plasma) was 9 min. For the same compound, the “stimulation of hepatocyte uncoupled V02” value in the data set with hepatocyte is “up to 100%”.

On to interferon alpha-2b, for which the HCV-RNA entry in the data set on hepatitis C virus (after 6 months of interferon alpha-2b with ribavirin, before relapse) was “undetectable”. The same compound came in with a hemoglobin concentration with hepatitis C virus (after 12 weeks of interferon alpha-2b with ribavirin, anemia) of 9.2 g/deciliter.

As for `Oc1ccc(CCCCNC[C@H](O)c2ccc(O)c(O)c2)cc1` [arbutamine], the half-life in data set [2] (in vivo) is 10 min.

The compound `NC[C@H](O)c1ccc(O)c(O)c1` [Norepinephrine bitartrate (Levophed), Norepinephrine bitartrate] had a heart rate in data set [1] (Example 2, about 1 minute after vasopressor IV drip 1 microgram/min on DNP, from 90) of 100. Moreover, in data set [1] (Example 2, about 1 minute after vasopressor IV drip on DNP), the V02 was found to be 0.85 L/min. Besides, in data set [1] (Example 2, within 20 minutes of vasopressor on DNP), the core body temperature worked out at 41.5 °C.
